{"source": "patent US12721985B2", "about": "“Microneedle patch system for transdermal drug delivery” (INDUSTRY-ACADEMIC COOPERATION FOUNDATION GYEONGSANG …, priority 2021, dated 2026)", "assay": "Drug blood concentration pattern in rats after donepezil administration", "details": "rat, in vivo", "description": "More specifically, 3 mg/kg of donepezil was administered orally, 1 mg/kg of donepezil was administered subcutaneously, or 43 mg/kg of donepezil was administered using the microneedle patch prepared in the above example to rats, and the drug blood concentration patterns were compared.\nNext, rats were administered donepezil at different concentrations of 43 mg/kg, 80 mg/kg, and 125 mg/kg using the microneedle patch prepared in the above example, respectively, and the drug blood concentration patterns were compared.\nNext, after administering 80 mg/kg of donepezil to rats using the microneedle patch prepared in the above example, the drug blood concentration pattern was compared between the case where the needle was removed in 1 hour and the case where the needle was applied for 3 days."}
{"smiles": "COc1cc2c(cc1OC)C(=O)C(CC1CCN(Cc3ccccc3)CC1)C2", "note": "(centres unmarked) [donepezil]", "values": [{"measurement": "time in which drug blood concentration was very low", "setting": "po, 3 mg/kg", "value": "about 1 day"}, {"measurement": "time in which drug blood concentration was very low", "setting": "sc, 1 mg/kg", "value": "about 1 day"}]}
